In patent publication US9115148B2, “Spirocyclic derivatives as histone deacetylase inhibitors” (DAC S.R.L., priority 2008, dated 2015):

Experiments:
[1] = system: HDAC (nuclear fraction of Hela cells); test: Assay of enzyme inhibition of HDAC (BIOMOL Kit); type: biochemical; conditions: substrate 200 μM, 15 min at RT
Experimental: 2.2 Assay of Enzyme Inhibition of HDAC
The in-vitro activity of HDAC inhibitors was assayed using a BIOMOL Kit, according to the instructions from the manufacturer (Biomolecular Research Laborator). 15 μl of 30× diluted nuclear fraction of Hela cells, was diluted to 50 μl with the assay buffer containing the HDAC inhibitor and the substrate (lysine with acetylated amino group on the side chain) at a concentration of 200 μM. The samples were incubated for 15 min at RT and then exposed to a developer (10 min at RT). In this last step a fluorophore was produced, whose fluorescence was measured using an excitation wavelength of 355 nm and an emission at 460 nm. The IC50 was calculated using GraphPad Software.

K562 cells = test: Cell growth, CellTiter-Glo Luminescent Cell Viability Assay, K562; type: cell-based; conditions: Homo sapiens, 72 h incubation, read-out: IC50 antiproliferative assay K562
Description: (§1) CellTiter-Glo® Luminescent Cell Viability Assay (Promega) is a homogeneous method of determining the number of viable cells in culture based on quantitation of the present ATP, which indicates the presence of metabolically active cells. The homogeneous assay procedure involves addition of a single reagent (CellTiter-Glo® Reagent) directly to the cells, which leads to cell lysis and generation of a luminescent signal proportional to the amount of the ATP and the number of cells present in culture. The assay relies on the properties of a proprietary thermostable luciferase (Ultra-Glo® recombinant luciferase), which generates a luminescent signal.
(§2) K562, A549 and HCT-116 cells, in exponential growth, were incubated for 72 h with different concentrations of the inhibitors. After 72 h, a volume of CellTiter-Glo® Reagent equal to the volume of cell culture medium was added. The content was mixed for 2 min to induce cell lysis. The luminescence was recorded after further 10 min at RT in order to obtain a stabilized luminescent signal.
(§3) The IC50 was calculated using GraphPad Software.
(§4) IC50 results were allocated to one of 3 ranges as follows: Range A: IC50≦1.0 μM; Range B: from 1.0 to 3.0 μM; Range C: IC50≧3.0 μM.

A549 cells = test: Cell growth, CellTiter-Glo Luminescent Cell Viability Assay, A549; type: cell-based; conditions: Homo sapiens, 72 h incubation, read-out: IC50 antiproliferative assay A549
Description: as §1, §2, §3, §4

HCT-116 cells = test: Cell growth, CellTiter-Glo Luminescent Cell Viability Assay, HCT-116; type: cell-based; conditions: Homo sapiens, HCT116 cells, 72 h incubation, read-out: IC50 antiproliferative assay HCT116
Description: as §1, §2, §3, §4

Row | SMILES | IC50 [1] | IC50 (K562 cells) | IC50 (A549 cells) | IC50 (HCT-116 cells)
1 | CC(=O)NC1CC2(CCN(Cc3ccccc3)CC2)Oc2ccc(/C=C/C(=O)NO)cc21 (stereo not shown) [Example 16, (E)-3-{1′-Benzyl-4-acetylamino-spiro[chromane-2,4′-piperidine]-6-yl}-N-hydroxy-acrylamide] | > 1000 nM | ≥ 3000 nM | ≥ 3000 nM | ≥ 3000 nM
2 | Cc1ccccc1CN1CCC2(CC1)CC(=O)c1cc(/C=C/C(=O)NO)ccc1O2 [Example 28, (E)-3-{1′-(2-Methyl-benzyl)-4-oxo-spiro[chromane-2,4′-piperidine]-6-yl}-N-hydroxy-acrylamide] | 100 to 1000 nM | ≤ 1000 nM | 1000 to 3000 nM | 1000 to 3000 nM
3 | COc1cccc(CN2CCC3(CC2)CC(=O)c2cc(/C=C/C(=O)NO)ccc2O3)c1 [Example 32, (E)-3-{1′-(3-Methoxy-benzyl)-4-oxo-spiro[chromane-2,4′-piperidine]-6-yl}-N-hydroxy-acrylamide] | 100 to 1000 nM | ≤ 1000 nM | 1000 to 3000 nM | ≤ 1000 nM
4 | O=C(/C=C/c1ccc2c(c1)OC1(CCN(C(=O)c3ccccc3)CC1)CC2=O)NO [Example 11, (E)-3-{1′-Benzoyl-4-oxo-spiro[chromane-2,4′-piperidine]-7-yl}-N-hydroxy-acrylamide] | 100 to 1000 nM | ≥ 3000 nM | ≥ 3000 nM | ≥ 3000 nM
5 | O=C(/C=C/c1ccc2c(c1)C(=O)CC1(CCN(c3ncccn3)CC1)O2)NO [Example 27, (E)-3-{1′-Pyrimidin-2-yl-4-oxo-spiro[chromane-2,4′-piperidine]-6-yl}-N-hydroxy-acrylamide] | 100 to 1000 nM | ≥ 3000 nM | ≥ 3000 nM | 1000 to 3000 nM
6 | O=C(/C=C/c1ccc2c(c1)CCC1(CCN(Cc3ccccc3)CC1)O2)NO [Example 13, (E)-3-{1′-Benzyl-spiro[chromane-2,4′-piperidine]-6-yl}-N-hydroxy-acrylamide] | > 1000 nM | ≥ 3000 nM | ≥ 3000 nM | ≥ 3000 nM
7 | COc1ccc(CN2CCC3(CC2)CC(=O)c2cc(/C=C/C(=O)NO)ccc2O3)cc1 [Example 33, (E)-3-{1′-(4-Methoxy-benzyl)-4-oxo-spiro[chromane-2,4′-piperidine]-6-yl}-N-hydroxy-acrylamide] | 100 to 1000 nM | ≤ 1000 nM | ≤ 1000 nM | ≤ 1000 nM
8 | O=C(/C=C/c1ccc2c(c1)C(=O)CC1(CCN(Cc3cccc(Cl)c3)CC1)O2)NO [Example 38, (E)-3-{1′-(3-Chloro-benzyl)-4-oxo-spiro[chromane-2,4′-piperidine]-6-yl}-N-hydroxy-acrylamide] | 100 to 1000 nM | ≤ 1000 nM | 1000 to 3000 nM | 1000 to 3000 nM
9 | O=C(/C=C/c1ccc2c(c1)C=CC1(CCN(Cc3ccccc3)CC1)O2)NO [Example 15, (E)-3-{1′-Benzyl-spiro[chromene-2,4′-piperidine]-6-yl}-N-hydroxy-acrylamide] | > 1000 nM | ≥ 3000 nM | ≥ 3000 nM | ≥ 3000 nM
10 | O=C(/C=C/c1ccc2c(c1)C(=O)CC1(CCN(Cc3ccc(-c4ccccc4)cc3)CC1)O2)NO [Example 52, (E)-3-{1′-(Biphenyl-4-ylmethyl)-4-oxo-spiro[chromane-2,4′-piperidine]-6-yl}-N-hydroxy-acrylamide] | 100 to 1000 nM | ≤ 1000 nM | 1000 to 3000 nM | ≤ 1000 nM
11 | CN1C(=O)c2cc(/C=C/C(=O)NO)ccc2OC12CCNCC2 [Example 79, (E)-3-{3,4-Dihydro-3-methyl-4-oxo-spiro[2H-(1,3)-benzoxazine-2,4′-piperidin]-6-yl}-N-hydroxy-acrylamide] | 100 to 1000 nM | ≥ 3000 nM | ≥ 3000 nM | ≥ 3000 nM

The remaining lines, values ahead:

Row | IC50 [1] | IC50 (K562 cells) | IC50 (A549 cells) | IC50 (HCT-116 cells) | SMILES
12 | 100 to 1000 nM | 1000 to 3000 nM | ≥ 3000 nM | 1000 to 3000 nM | O=C(/C=C/c1ccc2c(c1)C(=O)N(Cc1ccccc1)C1(CCN(Cc3ccc(F)cc3)CC1)O2)NO [Example 83, (E)-3-{1′-(4-Fluoro-benzyl)-3,4-dihydro-3-benzyl-4-oxo-spiro[2H-(1,3)-benzoxazine-2,4′-piperidin]-6-yl}-N-hydroxy-acrylamide]
13 | 100 to 1000 nM | ≤ 1000 nM | 1000 to 3000 nM | ≤ 1000 nM | O=C(/C=C/c1ccc2c(c1)C(=O)CC1(CCN(CCCc3ccccc3)CC1)O2)NO [Example 45, (E)-3-{1′-(3-Phenyl-propyl)-4-oxo-spiro[chromane-2,4′-piperidine]-6-yl}-N-hydroxy-acrylamide]
14 | < 100 nM | ≤ 1000 nM | ≤ 1000 nM | ≤ 1000 nM | COc1ccc(CCN2CCC3(CC2)CC(=O)c2cc(/C=C/C(=O)NO)ccc2O3)cc1 [Example 58, (E)-3-{1′-[2-(4-Methoxy-phenyl)-ethyl]-4-oxo-spiro[chromane-2,4′-piperidine]-6-yl}-N-hydroxy-acrylamide]
15 | 100 to 1000 nM | 1000 to 3000 nM | ≥ 3000 nM | 1000 to 3000 nM | O=C(/C=C/c1ccc2c(c1)C(=O)CC1(CCN(S(=O)(=O)c3ccccc3)CC1)O2)NO [Example 44, (E)-3-{1′-Phenylsulfonyl-4-oxo-spiro[chromane-2,4′-piperidine]-6-yl}-N-hydroxy-acrylamide]
16 | 100 to 1000 nM | ≤ 1000 nM | 1000 to 3000 nM | ≤ 1000 nM | CN1C(=O)c2cc(/C=C/C(=O)NO)ccc2OC12CCN(Cc1ccc(F)cc1)CC2 [Example 75, (E)-3-{1′-(4-Fluoro-benzyl)-3,4-dihydro-3-methyl-4-oxo-spiro[2H-(1,3)-benzoxazine-2,4′-piperidin]-6-yl}-N-hydroxy-acrylamide]
17 | < 100 nM | ≤ 1000 nM | 1000 to 3000 nM | ≤ 1000 nM | O=C(/C=C/c1ccc2c(c1)C(=O)CC1(CCN(Cc3c[nH]c4cc(F)ccc34)CC1)O2)NO [Example 53, (E)-3-{1′-(6-Fluoro-1H-indol-3-ylmethyl)-4-oxo-spiro[chromane-2,4′-piperidine]-6-yl}-N-hydroxy-acrylamide]
18 | < 100 nM | ≤ 1000 nM | ≤ 1000 nM | ≤ 1000 nM | Cc1[nH]c2ccccc2c1CN1CCC2(CC1)CC(=O)c1cc(/C=C/C(=O)NO)ccc1O2 [Example 51, (E)-3-{1′-(2-Methyl-1H-indol-3-ylmethyl)-4-oxo-spiro[chromane-2,4′-piperidine]-6-yl}-N-hydroxy-acrylamide]
19 | 100 to 1000 nM | ≥ 3000 nM | ≥ 3000 nM | ≥ 3000 nM | O=C(/C=C/c1ccc2c(c1)C(=O)NC1(CCN(Cc3ccccc3)CC1)N2)NO [Example 26, (E)-3-{1-Benzyl-3′,4′-dihydro-4′-oxo-spiro[piperidine-4,2′(1′H)-quinazoline]-6′-yl}-N-hydroxy-acrylamide]
20 | 100 to 1000 nM | ≤ 1000 nM | 1000 to 3000 nM | 1000 to 3000 nM | CN1C(=O)c2cc(/C=C/C(=O)NO)ccc2OC12CCN(CCc1ccccc1)CC2 [Example 77, (E)-3-{1′-(2-Phenyl-ethyl)-3,4-dihydro-3-methyl-4-oxo-spiro[2H-(1,3)-benzoxazine-2,4′-piperidin]-6-yl}-N-hydroxy-acrylamide]
21 | 100 to 1000 nM | ≥ 3000 nM | ≥ 3000 nM | ≥ 3000 nM | O=C(/C=C/c1ccc2c(c1)C(=O)C1(CCN(Cc3ccccc3)CC1)O2)NO [Example 21, (E)-3-{1′-Benzyl-3-oxo-spiro[benzofuran-2(3H), 4′-piperidin]-5-yl}-N-hydroxy-acrylamide]
22 | 100 to 1000 nM | ≥ 3000 nM | ≥ 3000 nM | ≥ 3000 nM | CC(=O)N1CCC2(CC1)CC(=O)c1cc(/C=C/C(=O)NO)ccc1O2 [Example 3, (E)-3-{1′-Acetyl-4-oxo-spiro[chromane-2,4′-piperidine]-6-yl}-N-hydroxy-acrylamide]
23 | 100 to 1000 nM | ≤ 1000 nM | ≤ 1000 nM | ≤ 1000 nM | O=C(/C=C/c1ccc2c(c1)C(=O)CC1(CCN(CCc3ccccc3F)CC1)O2)NO [Example 59, (E)-3-{1′-[2-(2-Fluoro-phenyl)-ethyl]-4-oxo-spiro[chromane-2,4′-piperidine]-6-yl}-N-hydroxy-acrylamide]
24 | < 100 nM | ≤ 1000 nM | ≤ 1000 nM | ≤ 1000 nM | O=C(/C=C/c1ccc2c(c1)C(=O)CC1(CCN(Cc3c[nH]c4ccccc34)CC1)O2)NO [Example 50]
25 | < 100 nM | ≤ 1000 nM | ≤ 1000 nM | ≤ 1000 nM | CCN1CCC2(CC1)CC(=O)c1cc(/C=C/C(=O)NO)ccc1O2 [Example 68, (E)-3-{1′-Ethyl-4-oxo-spiro[chromane-2,4′-piperidine]-6-yl}-N-hydroxy-acrylamide]
